The values that follow come from patent US9181243B2, “Solvate form M of trametinib dimethyl sulfoxide and methods of making and using thereof” (HANGZHOU PUSHAI PHARMACEUTICAL TECHNOLOGY CO., LTD., priority 2014, dated 2015).

Data set [1] is described as follows: Isothermal sorption (hygroscopicity). The conditions noted are these: between 20-80% RH (relative humidity).
Method: Isothermal sorption was performed by TA Instruments Q5000 TGA. The control software is Thermal Advantage and the analysis software is Universal Analysis. Usually 1 to 10 mg of the specimen was placed in the platinum pan. The weight changes of the sample from 20% to 80% to 20% relative humidity were recorded by the TA software and the isothermal sorption plot was obtained by the analysis software.
The conditions of data set [2]: volume distribution.
Method: Typical particle size distribution (PSD) is measured using a laser diffraction particle size analyzer, namely Microtrac FLEX 53500. The most common approach for defining the distribution is to report the D10, D50, and D90 values based on a volume distribution. The D50, the median, has been defined above as the diameter where half of the population lies below this value. Similarly, 90 percent of the distribution lies below the D90, and 10 percent of the population lies below the D10.
Data set [3] in a line: Storage stability of crystalline form followed by XRPD. The conditions noted are these: 44% RH, room temperature, 9 months.
Data set [4] has as its system advanced melanoma with BRAF V600E/K mutations. The conditions noted are these: versus traditional chemotherapy drugs; cited from earlier work.

Read-outs that look alike come from different tables or passages of the source.

Turning to `CC(=O)Nc1cccc(-n2c(=O)n(C3CC3)c(=O)c3c(Nc4ccc(I)cc4F)n(C)c(=O)c(C)c32)c1` [Form M], in data set [1], the “weight change in isothermal sorption” value is reported as “about 1.07%”. In data set [2] (listed as Example 8), this compound showed a D10 of 18 μm, a D50 of 40 μm and a D90 of 85 μm. In data set [2] (listed as Example 9), this compound yielded a D10 of 9 μm, a D50 of 24 μm and a D90 of 72 μm. The “crystalline form change on storage (XRPD pattern)” value (“crystalline form change on storage” below) in data set [3] is “no signs of form change”.
As to `CC(=O)Nc1cccc(-n2c(=O)n(C3CC3)c(=O)c3c(Nc4ccc(I)cc4F)n(C)c(=O)c(C)c32)c1` [trametinib, N-{3-[3-cyclopropyl-5-(2-fluoro-4-iodo-phenylamino)-3,4,6,7-tetrahydro-6,8-dimethyl-2,4,7-trioxo-pyrido[4,3-d]pyrimidin-1(2H)-yl]phenyl}acetamide], the therapeutic effect entry in data set [4] is “significantly better than traditional chemotherapy drugs”.
In data set [2], `CC(=O)Nc1cccc(-n2c(=O)n(C3CC3)c(=O)c3c(Nc4ccc(I)cc4F)n(C)c(=O)c(C)c32)c1.C[S+](C)[O-]` [Reference Example 1, Trametinib dimethyl sulfoxide solvate, reference compound] came in with a D10 of 3 μm, a D50 of 8 μm and a D90 of 36 μm. In data set [3] (listed as trametinib dimethyl sulfoxide solvate obtained by the conventional methods), the “crystalline form change on storage” value is recorded as “its patterns changed”. Moreover, the “crystalline form change on storage” value in data set [3] (listed as trametinib dimethyl sulfoxide solvates obtained by conventional methods) is recorded as “changed its XRD pattern”.
